“Also recorded” adds a separate entry of the source.
Columns and labels:
[1] = system: Syrian golden hamster; experiment: Chronic alcohol drinking in Syrian golden hamsters (free choice of alcohol and water); type: in vivo, Mesocricetus auratus
Procedure: (§1) All animals were given 24 hours/day access to 10-15% alcohol and water in two separate drinking bottles. Groups of animals (n=6-10/group) received daily injections of the specific drug or drug combination or vehicle for up to 4 weeks.

[2] = system: Syrian golden hamster; conditions: vs vehicle, Example 1 (prior art, FIG. 1, Green et al. 2004); cited from earlier work
[3] = system: alcohol preferring P rat; experiment: Initiation of alcohol drinking in alcohol-preferring P rats; type: in vivo
Procedure: as §1

Q: Which “duration of clozapine's effect on alcohol drinking” value ([1]; Syrian golden hamster, chronic clozapine, Example 2, FIG. 2, unpublished data) does the source give for `CN1CCN(C2=Nc3cc(Cl)ccc3Nc3ccccc32)CC1` [clozapine] here?
A: at least 1 month

Q: Which results are given for `O=C(CCCN1CCC(O)(c2ccc(Cl)cc2)CC1)c1ccc(F)cc1` [haloperidol]?
A: chronic alcohol drinking [2]: No dose of haloperidol tested had an effect on alcohol drinking; also recorded: very little effect on chronic alcohol drinking; initiation of alcohol drinking ([3]; low-dose haloperidol, Example 7, FIG. 7): minimal ability to blunt the initiation of alcohol drinking

Q: For `Cc1nc2n(c(=O)c1CCN1CCC(c3noc4cc(F)ccc34)CC1)CCCC2` [risperidone], which “alcohol drinking (initiation of alcohol drinking)” value ([3]; low dose of risperidone, Example 11, FIG. 11) is on record?
A: only a modest effect on alcohol drinking

Q: And the “alcohol drinking (chronic drinking)” value ([1]; hamster, low dose of risperidone, Examples 9-10, FIGS. 9, 10)?
A: only a modest effect on alcohol drinking

From US20150374712A1, “Combinations of Dopamine D2 Receptor Blockade With Norepinephrine Reuptake Inhibition and with Norepinephrine Alpha 2 Receptor Blockade” (priority 2007, published 2015)
